Measurements published in patent US12527785B2, “Renin-angiotensin-aldosterone system (RAAS) inhibitors in the treatment of pancreatic ductal carcinoma” (OCHSNER CLINIC FOUNDATION, priority 2023, dated 2026).
Where two headings read alike, the source gives them in different places.

What was measured:
[1] = system: PANC-1 cells; experiment: WST1 cell proliferation assay, PANC-1 cells; type: cell-based, human; details: 10% FCS-DMEM
Procedure: (§1) PDA cell line (PANC-1 or HS766T) or patient cancer cells (PaCa9) were trypsinized with 1% trypsin in Hank's Balanced Salt Solution (HBSS), counted, washed, and resuspended in serum free AIM media (ThermoFisher Scientific, Waltham, MA) or complete Dulbecco's Modified Eagle Medium (DMEM) supplemented with 10% fetal bovine serum, […], 100 U/ml of penicillin G, and […] of streptomycin. Cells at a concentration of 2-4×10^4 cells/well in 100 μl culture medium were seeded in triplicate in 96 well plates, then cultured in a humidified incubator at 37° C. and 5% CO2. On the next day, cell supernatant was discarded and compounds (e.g., drugs) of the present disclosure in 200 μl medium were added with the concentrations indicated in the following Examples. After 72 hours of culture, cell proliferation reagent WST1 (20 μl/well, Sigma Aldrich Inc, St. Louis, MO) were added and plates were read using an ELISA reader at 2 hours and 4 hours under the wavelength of 450 nm. The measured absorbance (OD value) was recorded and graphed and statistically analyzed using GraphPad Prism 8, t-test, or t-test with Bonferroni correction.

[2] = system: HS766T cells; experiment: WST1 cell proliferation assay, HS766T cells; type: cell-based; details: 10% FCS-DMEM
Procedure: as §1

[3] = system: PaCa-9 PDAC patient tumor cells; experiment: WST1 cell proliferation assay, PaCa-9 PDAC patient tumor cells; type: cell-based, human; details: 10% FCS-DMEM
Procedure: as §1, with “Louis, MO) were added and plates were read using an ELISA reader at 2 hours and 4 hours under the wavelength of 450 nm.” left out

[4] = system: PANC-1 tumor orthotopic xenograft; experiment: PANC-1 tumor orthotopic xenograft mouse model (BLI tumor burden, tumor weight); type: in vivo; details: for Tumor weight / Tumor weight, mean: 100 mg/kg EMA401, DWK 8.5; for Tumor weight: Table 17A, control 0.9444; for Tumor weight lowered versus control: EMA401 (100 mg/kg); for BLI data, % of control / BLI data, mean: four weeks; for BLI data, mean: control 3.003
Excerpt: Human PDCA cell line PANC-1 was transduced with pre-made lentiviral vectors encoding luciferase (firefly)/red fluorescent protein (RFP) to enable monitoring of the growth of primary tumor and metastasis. […] For in vivo experiments, Nonobese diabetic/severe combined immunodeficiencyNOD-SCID mice (Jackson Labs, Bar Harbor, ME, or inhouse breeding) were first brought under anesthesia with isoflurane (2.5% in 100% oxygen, 1 L/min) in an induction chamber and maintained under adequate anesthesia (isoflurane inhalation) while being laid on a warming pad throughout the surgical procedure. For tumor generation, 5×10^4 luciferase-tagged PANC-1 cells were co-inoculated with 3×10^5 lymph node stromal cell (LNSC) analog HK cells. The mice received a 0.75-1.2 cm long incision (on the left side of the body slightly medial to the splenic silhouette) to exteriorize the spleen and pancreas. While gently retracting the pancreas laterally, a 30 G needle was inserted along the length of the pancreas from the tail to the pancreatic head region. Then, 10 μl of cell suspension was injected as the needle was withdrawn to the mid-body of the pancreas. The needle was removed, and the area was inspected for leakage and bleeding. The pancreas and spleen were internalized with forceps and the abdominal muscle layer was closed with interrupted stitches (3-0 silk suture). The overlying skin was closed with a second set of interrupted stitches. Buprenorphine SR-LAB was injected subcutaneously immediately after the surgery for pain relief.
After the surgery, tumor growth and metastatic tumor burden were monitored and assessed weekly for luciferase activity by bioluminescence imaging (BLI) using Lago Imaging System (Spectral Instruments Imaging, Tucson, AZ). Mice were anesthetized using isoflurane for all imaging procedures. Mice were administered intraperitoneally with luciferin (10 mg/kg) and imaged in 10-20 minutes for maximum luciferase signal plateau. Images were analyzed using Aura Imaging software. Once the BLI levels of xenografted tumor reached 5×10^8 photons (around 7-9 weeks post PANC-1 cell injection), the mice were grouped based on their BLI level and compounds (e.g., drugs) of the present disclosure were given by gavage daily to each group for 4 weeks. […] Upon sacrifice after 4 weeks of treatment, primary tumors and mouse organs were harvested, weighed, imaged, and formalin-fixed for (hematoxylin and eosin) H&E and immunohistochemistry staining. Data was statistically analyzed using t-test, or t-test with Bonferroni correction.

[5] = Serum concentration of EMA401 after oral dosing in humans; type: in vivo, human
[6] = system: PDCA cells (PANC-1, HS766T, PaCa9); experiment: In vitro PDCA cell proliferation (WST1), summary statements over the cell lines tested; type: cell-based; details: 10 μM; all cell lines tested
Procedure: as §1

[7] = 100 mg EMA401 p.o. in men and women; cited from earlier work

Question: For `COc1ccc2c(c1OCc1ccccc1)C[C@@H](C(=O)O)N(C(=O)C(c1ccccc1)c1ccccc1)C2` [EMA401], which “cell proliferation, WST1 absorbance (OD value, 450 nm), mean” value (“cell proliferation, WST1 absorbance” for short) ([1]; EMA 10 μM, Table 1, 2 h, control 3.618) is on record?
Answer: Its value is 2.976.

Question: And the “cell proliferation, WST1 absorbance” value ([1]; EMA 50 μM, Table 1, 2 h, control 3.618)?
Answer: The value was 2.957.

Question: What about the “cell proliferation, WST1 absorbance” value ([1]; EMA401 10 μM, Table 5A, 2×10^4 cells per well, Medium/DMSO 3.348) of the same compound?
Answer: The value was 2.872.

Question: And the “cell proliferation, WST1 absorbance” value ([1]; EMA401 50 μM, Table 5A, 2×10^4 cells per well, Medium/DMSO 3.348)?
Answer: The value was 0.691.

Question: And the “cell proliferation, WST1 absorbance” value ([2]; EMA 10 μM, Table 2, 2 h, control 3.214)?
Answer: Its value is 1.360.

Question: What about the “cell proliferation, WST1 absorbance” value ([2]; EMA 50 μM, Table 2, 2 h, control 3.214) of the same compound?
Answer: The value was 1.41.

Question: And the “cell proliferation, WST1 absorbance” value ([2]; EMA401 10 μM, Table 6A, 2×10^4 cells per well, control 3.339)?
Answer: Its value is 3.290.

Question: And the “cell proliferation, WST1 absorbance” value ([2]; EMA401 50 μM, Table 6A, 2×10^4 cells per well, control 3.339)?
Answer: Its value is 0.593.

Question: What about the “cell proliferation, WST1 absorbance” value ([3]; EMA 10 μM, Table 3, 1 h, Medium/DMSO 3.571) of the same compound?
Answer: Its value is 2.088.

Question: What about the “cell proliferation, WST1 absorbance” value ([3]; EMA 10 μM, Table 4, 2 h, Medium/DMSO >3.60) of the same compound?
Answer: The value was 2.910.

Question: And the “cell proliferation, WST1 absorbance” value ([3]; EMA 50 μM, Table 3, 1 h, Medium/DMSO 3.571)?
Answer: The value was 2.000.

Question: What about the “cell proliferation, WST1 absorbance” value ([3]; EMA 50 μM, Table 4, 2 h, Medium/DMSO >3.60) of the same compound?
Answer: The value was 2.447.

Question: And the “cell proliferation, WST1 absorbance” value ([3]; EMA401 10 μM, Table 7A, 2×10^4 cells per well, control 3.535)?
Answer: Its value is 3.257.

Question: What about the “cell proliferation, WST1 absorbance” value ([3]; EMA401 50 μM, Table 7A, 2×10^4 cells per well, control 3.535) of the same compound?
Answer: The value was 0.541.

Question: What about the Tumor weight ([4]; all animals) of the same compound?
Answer: The Tumor weight was 0.7215 g.

Question: And the Tumor weight ([4]; excluding one outlier)?
Answer: The Tumor weight was 0.6174 (Excluding.

Question: And the “Tumor weight, mean” value ([4]; Table 17B (repeated study), control 0.8041)?
Answer: Its value is 0.5383 g.

Question: And the “Tumor weight, mean” value ([4]; Table 17C (both studies pooled, including the outlier), control 0.8763)?
Answer: Its value is 0.6347 g.

Question: And the “Tumor weight fall versus control” value ([4]; 100 mg/kg EMA401 for 8 weeks, first study, all animals, did not reach statistical significance)?
Answer: The value was 24%.

Question: And the “Tumor weight decrease versus control” value ([4]; 100 mg/kg EMA401 for 8 weeks, first study, one outlier omitted, p=0.036)?
Answer: The value was 35%.

Question: What about the “Effect on tumor weight” value ([4]; EMA401 60 mg/kg, short-term (4 week) low dose study) of the same compound?
Answer: The value was “did not reduce tumor weight”.

Question: What about the “Tumor weight lowered versus control” value ([4]; 4 week study, not statistically significant) of the same compound?
Answer: Its value is 26%.

Question: What about the “Tumor weight lowered versus control” value ([4]; after 8 weeks treatment (example 5), significant) of the same compound?
Answer: The value was 33%.

Question: And the “BLI data, % of control” value ([4]; EMA (60 mg/kg))?
Answer: The value was 59%.

Question: And the “BLI data, mean” value ([4]; EMA (60 mg/kg))?
Answer: The value was 1.782.

Question: And the “BLI data, % of control” value ([4]; EMA (100 mg/kg))?
Answer: The value was 61%.

Question: And the “BLI data, mean” value ([4]; EMA (100 mg/kg))?
Answer: The value was 1.834.

Question: And the Serum concentration ([5]; 100 mg EMA401 p.o. in men and women, converted with mol wt 507.6)?
Answer: Its Serum concentration is 2 µM.

Question: And the Serum concentration ([5]; 400 mg/day EMA401 in humans)?
Answer: Its Serum concentration is 8 µM.

Question: And the Serum concentration ([5]; 600 mg/day p.o., extrapolated (would produce))?
Answer: Its Serum concentration is 12 µM.

Question: What about the “Effective (statistically significant, p<0.05, decrease in cell proliferation by WST1 assay)” value [6] of the same compound?
Answer: Its value is “effective in all cell lines tested”.

Question: And the Serum concentration [7]?
Answer: The Serum concentration was 1000 ng/mL.
